Measurements published in ChEMBL document CHEMBL1201862, “PubChem BioAssay data set” (2004).
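Results reflect a 48-hour exposure of cells in 96-well plates to compound at five concentrations. Abbreviation: GI50, concentration required for 50% inhibition of growth.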 Activity calls are given as the source filed them. No stated cut-off is given here; in the data, active = GI50 up to about 1.1 µM and inactive = higher.

Assays:
Experiment in all cases: NCI tumour cell line growth inhibition, 48 h
[1] = system: A549
[2] = system: NCI-H226
[3] = system: SK-OV-3
[4] = system: SK-MEL-28
[5] = system: CAKI-1
[6] = system: 786-0
[7] = system: HCT-116
[8] = system: NCI-H23
[9] = system: DU-145
[10] = system: OVCAR-4
[11] = system: UACC-62
[12] = system: ACHN
[13] = system: UACC-257
[14] = system: TK-10
[15] = system: IGROV-1
[16] = system: HOP-62
[17] = system: M14
[18] = system: A498
[19] = system: RPMI-8226
[20] = system: OVCAR-3

| Compound | GI50 [1] | GI50 [2] | GI50 [3] | GI50 [4] | GI50 [5] | GI50 [6] | GI50 [7] | GI50 [8] | GI50 [9] | GI50 [10] | GI50 [11] | GI50 [12] | GI50 [13] | GI50 [14] | GI50 [15] | GI50 [16] | GI50 [17] | GI50 [18] | GI50 [19] | GI50 [20] |
| --- | --- | --- | --- | --- | --- | --- | --- | --- | --- | --- | --- | --- | --- | --- | --- | --- | --- | --- | --- | --- |
| Nc1ccccc1N/C=C\C(=O)C(Cl)(Cl)Cl | 67.3 µM (inactive) | 82.6 µM (inactive) | 25.2 µM (inactive) | 17.5 µM (inactive) | 19.6 µM (inactive) | 15 µM (inactive) | 16.2 µM (inactive) | 22.7 µM (inactive) | 26.7 µM (inactive) | 19.5 µM (inactive) | 17.5 µM (inactive) | 16.3 µM (inactive) | 21.9 µM (inactive) | 30.6 µM (inactive) | 16.4 µM (inactive) | 19.3 µM (inactive) | 14.7 µM (inactive) | 18.8 µM (inactive) | 14.3 µM (inactive) |  |
| CC1=NNC(=O)C1C1CC(c2c[nH]c3ccccc23)=NN(c2ccccc2)C1=O (stereo unspecified) | > 100 µM (inactive) | > 100 µM (inactive) | > 100 µM (inactive) | > 100 µM (inactive) | > 100 µM (inactive) | 24.6 µM (inactive) | 34.7 µM (inactive) | > 100 µM (inactive) | > 100 µM (inactive) |  | > 100 µM (inactive) | > 100 µM (inactive) | > 100 µM (inactive) | > 100 µM (inactive) | 1.62 µM (inactive) | > 100 µM (inactive) | 66.4 µM (inactive) | > 100 µM (inactive) | 60.3 µM (inactive) | > 100 µM (inactive) |
| Cc1ccnc2nc(-c3ccc4ccccc4c3)cc(O)c12 | 1.4 µM (inactive) | 2.13 µM (inactive) | 1.09 µM (active) | 1.76 µM (inactive) |  | 1.52 µM (inactive) |  | 2.56 µM (inactive) | 4.1 µM (inactive) | 1.71 µM (inactive) | 0.531 µM (active) | 2.96 µM (inactive) | 6.75 µM (inactive) | 1.75 µM (inactive) | 1.2 µM (inactive) | 2.08 µM (inactive) | 1.22 µM (inactive) | 1.49 µM (inactive) | 0.641 µM (active) |  |
| Cc1cc(C)cc(Nc2cc(O)nc(O)n2)c1 | > 100 µM (inactive) | 58.3 µM (inactive) |  | > 100 µM (inactive) |  | > 100 µM (inactive) | > 100 µM (inactive) | > 100 µM (inactive) | > 100 µM (inactive) | > 100 µM (inactive) |  | > 100 µM (inactive) | > 100 µM (inactive) | > 100 µM (inactive) | > 100 µM (inactive) | > 100 µM (inactive) | > 100 µM (inactive) | > 100 µM (inactive) | > 100 µM (inactive) | > 100 µM (inactive) |
| CC1CC2OC(=N)C1(C#N)C2(C#N)C#N (stereo unspecified) | > 100 µM (inactive) | 38.4 µM (inactive) | > 100 µM (inactive) | 35.3 µM (inactive) | 7.57 µM (inactive) | 17.9 µM (inactive) | 16.3 µM (inactive) | 23.6 µM (inactive) | 56.6 µM (inactive) |  | 23.4 µM (inactive) | 31.4 µM (inactive) | 18.8 µM (inactive) | 26.8 µM (inactive) | 20.3 µM (inactive) | 16.8 µM (inactive) | 29.6 µM (inactive) | 20.3 µM (inactive) | 16.4 µM (inactive) |  |
| Cc1c(C)c(C)n(C2OC(CO)C(O)C(O)C2O)c(=S)c1C#N (stereo unspecified) | > 100 µM (inactive) | > 100 µM (inactive) | > 100 µM (inactive) | > 100 µM (inactive) |  | > 100 µM (inactive) | > 100 µM (inactive) | > 100 µM (inactive) | > 100 µM (inactive) | > 100 µM (inactive) | > 100 µM (inactive) | > 100 µM (inactive) | > 100 µM (inactive) | > 100 µM (inactive) | > 100 µM (inactive) | > 100 µM (inactive) | > 100 µM (inactive) | > 100 µM (inactive) |  | > 100 µM (inactive) |
| COc1cc(-c2cc(=O)c3cc4c(cc3[nH]2)OCO4)cc(OC)c1O | > 10 µM (inactive) | > 10 µM (inactive) | > 10 µM (inactive) | > 10 µM (inactive) | > 10 µM (inactive) | > 10 µM (inactive) | > 10 µM (inactive) | > 10 µM (inactive) | > 10 µM (inactive) | > 10 µM (inactive) | > 10 µM (inactive) | > 10 µM (inactive) | > 10 µM (inactive) | > 10 µM (inactive) | > 10 µM (inactive) | > 10 µM (inactive) | > 10 µM (inactive) |  | > 10 µM (inactive) | > 10 µM (inactive) |
| O=C1C=C(c2c(-c3ccccc3)[nH]c3ccccc23)C(=O)N1c1ccccc1 | 14.6 µM (inactive) | 22.6 µM (inactive) | 24.8 µM (inactive) | 13.3 µM (inactive) | 5.53 µM (inactive) | 8.65 µM (inactive) | 6.49 µM (inactive) | 10.7 µM (inactive) | 3.52 µM (inactive) |  | 10.7 µM (inactive) | 13.9 µM (inactive) | 9.25 µM (inactive) | 12.7 µM (inactive) | 14.5 µM (inactive) | 0.135 µM (active) | 11.4 µM (inactive) | 10.6 µM (inactive) | 5.6 µM (inactive) | 4.41 µM (inactive) |
